Here are results for 16 compounds from patent US20250197359A1, “CANNABINOID RECEPTOR MODULATING COMPOUNDS” (The U.S.A., as Represented by the Secretary, Department of …, priority 2022, published 2025).

A value given as a limit tells only on which side of the number the result lay.

For one assay, the target named is T1, Brain/CB1 (Mus musculus, UniProt P47746).
T1 construct: from tissue; host or cells: mouse brain membranes
The assay can be described thus: Functional GTPγS binding, Brain/CB1. Format: biochemical. The source says:
Furthermore, the intermediates urea compounds 8a-m were chlorinated with phosphorus oxychloride in the presence of DIPEA base to form imidoyl chloride intermediate and reacted with acetamidine hydrochloride/methyl carbamimidothioate iodide/methyl carbamimidoselenoate iodide and other amines to furnish the target compounds (10a-34b) (Scheme 2, FIG. 2, Scheme 5, FIG. 5). The urea derivatives were converted to the thiourea derivatives 9a-9d by employing sodium thiosulfate. Compound 8a-b, 8e-f were converted to corresponding thiourea by employing sodium thiosulfate dissolved in water dioxane mixture and the reaction was heated to 85° C. for 2 h. […] The binding constant for the synthesized compounds were determined by using radioligand binding assay in mouse brain membranes as well as the target compounds were evaluated in vitro at the human CB1 receptor, stably expressed into Chinese hamster ovary (CHO) cells as well as mouse brain membrane CB1.
In general terms: GTPγS is a poorly hydrolysed GTP analogue; its binding reports G protein activation.

Another assay concerns the target CB1 (UniProt P21554). The assay can be described thus: CB1 radioligand binding assay. More on the design: species or system human. To be noted: read-out: Ki (CB1). The protocol: The target compounds were evaluated in vitro at the human CB1 receptor, stably expressed into Chinese hamster ovary (CHO) cells by utilizing radioligand binding studies.
The binding constant for the synthesized compounds were determined by using radioligand binding assay in mouse brain membranes as well as the target compounds were evaluated in vitro at the human CB1 receptor, stably expressed into Chinese hamster ovary (CHO) cells as well as mouse brain membrane CB1. […]

T1 sequence (P47746 whole entry): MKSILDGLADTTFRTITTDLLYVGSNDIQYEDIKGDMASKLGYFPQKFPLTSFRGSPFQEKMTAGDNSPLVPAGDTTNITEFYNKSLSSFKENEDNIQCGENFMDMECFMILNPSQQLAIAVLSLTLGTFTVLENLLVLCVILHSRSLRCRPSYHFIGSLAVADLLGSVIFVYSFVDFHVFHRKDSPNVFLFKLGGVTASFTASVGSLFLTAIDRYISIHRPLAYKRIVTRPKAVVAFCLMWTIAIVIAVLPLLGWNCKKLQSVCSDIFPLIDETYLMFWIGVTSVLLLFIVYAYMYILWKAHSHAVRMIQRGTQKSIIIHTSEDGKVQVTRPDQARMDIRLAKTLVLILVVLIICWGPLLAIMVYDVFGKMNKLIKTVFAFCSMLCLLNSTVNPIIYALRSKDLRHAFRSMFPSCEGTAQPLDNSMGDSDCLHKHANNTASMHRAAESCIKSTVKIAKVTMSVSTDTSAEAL

Usually IC50 stands for the midpoint of a concentration-inhibition curve. `C/C(N)=N\C(=N\S(=O)(=O)c1ccc(C(F)(F)F)cc1)N1CCC(c2ccccc2)C(c2ccc(Cl)cc2)=N1` (single isomer, unassigned) [Compound 10bE1, (Z)—N—((E)-1-aminoethylidene)-3-(4-chlorophenyl)-4-phenyl-N′-((4-(trifluoromethyl)phenyl)sulfonyl)-5,6-dihydropyridazine-1 (4H)-carboximidamide] came in with an IC50 at Brain/CB1 greater than 1000 nM.

For `C/C(N)=N\C(=N\S(=O)(=O)c1ccc(C(F)(F)F)cc1)N1CCC(c2ccccc2)C(c2ccc(Cl)cc2)=N1` (single isomer, unassigned) [Compound 10bE2, (Z)—N—((E)-1-aminoethylidene)-3-(4-chlorophenyl)-4-phenyl-N′-((4-(trifluoromethyl)phenyl)sulfonyl)-5,6-dihydropyridazine-1 (4H)-carboximidamide], the IC50 at Brain/CB1 was found to be 34 nM.

A word on the Ki: it is a dissociation constant, usually derived from enzyme kinetics or from competition with a known ligand. Turning to `CC(C)(C)/C(N)=N/C(=N/S(=O)(=O)c1ccc(C(F)(F)F)cc1)N1CCC(c2ccccc2)C(c2ccc(Cl)cc2)=N1` (single isomer, unassigned) [Compound 10oE1, (Z)—N—((Z)-1-amino-2,2-dimethylpropylidene)-3-(4-chlorophenyl)-4-phenyl-N′-((4-(trifluoromethyl)phenyl)sulfonyl)-5,6-dihydropyridazine-1 (4H)-carboximidamide], the Ki at CB1 stood at 351 nM. Besides, the half-inhibitory concentration (IC50) on Brain/CB1 came out at 222 nM.

Take `CC(C)(C)/C(N)=N/C(=N/S(=O)(=O)c1ccc(C(F)(F)F)cc1)N1CCC(c2ccccc2)C(c2ccc(Cl)cc2)=N1` (single isomer, unassigned) [Compound 10oE2, (Z)—N—((Z)-1-amino-2,2-dimethylpropylidene)-3-(4-chlorophenyl)-4-phenyl-N′-((4-(trifluoromethyl)phenyl)sulfonyl)-5,6-dihydropyridazine-1 (4H)-carboximidamide]: the Ki at CB1 came to 7.3 nM. The IC50 at Brain/CB1 came to 11 nM.

The compound `N/C(=N\C(=N\S(=O)(=O)c1ccc(C(F)(F)F)cc1)N1CCC(c2ccccc2)C(c2ccc(Cl)cc2)=N1)c1ccccc1F` (single isomer, unassigned) [Compound 10tE1, (Z)—N—((Z)-amino (2-fluorophenyl)methylene)-3-(4-chlorophenyl)-4-phenyl-N′-((4-(trifluoromethyl)phenyl)sulfonyl)-5,6-dihydropyridazine-1 (4H)-carboximidamide] displayed an IC50 on Brain/CB1 of 51 nM.

For `N/C(=N\C(=N\S(=O)(=O)c1ccc(C(F)(F)F)cc1)N1CCC(c2ccccc2)C(c2ccc(Cl)cc2)=N1)c1ccccc1F` (single isomer, unassigned) [Compound 10tE2, (Z)—N—((Z)-amino (2-fluorophenyl)methylene)-3-(4-chlorophenyl)-4-phenyl-N′-((4-(trifluoromethyl)phenyl)sulfonyl)-5,6-dihydropyridazine-1 (4H)-carboximidamide], at Brain/CB1, the IC50 was determined as 18 nM.

As to `N/C(=N\C(=N\S(=O)(=O)c1ccc(C(F)(F)F)cc1)N1CCC(c2ccccc2)C(c2ccc(Cl)cc2)=N1)c1ccccn1` (single isomer, unassigned) [Compound 10vE1, (Z)—N—((Z)-amino (pyridin-2-yl)methylene)-3-(4-chlorophenyl)-4-phenyl-N′-((4-(trifluoromethyl)phenyl)sulfonyl)-5,6-dihydropyridazine-1 (4H)-carboximidamide], the Ki at CB1 came out at 11.5 nM. The IC50 on Brain/CB1 is 107 nM.

Consider `N/C(=N\C(=N\S(=O)(=O)c1ccc(C(F)(F)F)cc1)N1CCC(c2ccccc2)C(c2ccc(Cl)cc2)=N1)c1ccccn1` (single isomer, unassigned) [Compound 10vE2, (Z)—N—((Z)-amino (pyridin-2-yl)methylene)-3-(4-chlorophenyl)-4-phenyl-N′-((4-(trifluoromethyl)phenyl)sulfonyl)-5,6-dihydropyridazine-1 (4H)-carboximidamide], for which the Ki at CB1 was determined as 5 nM. On Brain/CB1, this compound gave an IC50 of 24 nM.

The compound `CC(C)C(N/C(=N/S(=O)(=O)c1ccc(C(F)(F)F)cc1)N1CCC(c2ccccc2)C(c2ccc(Br)cc2)=N1)C(N)=O` (single isomer, unassigned) [Compound 26a, (Z)-2-(3-(4-bromophenyl)-4-phenyl-N′-((4-(trifluoromethyl)phenyl)sulfonyl)-1,4,5,6-tetrahydropyridazine-1-carboximidamido)-3-methylbutanamide] gave a 50% inhibitory concentration (IC50) at Brain/CB1 greater than 1000 nM.

As to `CC(C)C(N/C(=N/S(=O)(=O)c1ccc(C(F)(F)F)cc1)N1CCC(c2ccccc2)C(c2ccc(Br)cc2)=N1)C(N)=O` (single isomer, unassigned) [Compound 26b, (Z)-2-(3-(4-bromophenyl)-4-phenyl-N′-((4-(trifluoromethyl)phenyl)sulfonyl)-1,4,5,6-tetrahydropyridazine-1-carboximidamido)-3-methylbutanamide], on Brain/CB1, the IC50 came to 9.5 nM.

For the compound `COc1ccc(S(=O)(=O)/N=C(/NC(C(N)=O)C(C)C)N2CCC(c3ccccc3)C(c3ccc(Cl)cc3)=N2)cc1` (single isomer, unassigned) [Compound 27a, (Z)-2-(3-(4-chlorophenyl)-N′-((4-methoxyphenyl)sulfonyl)-4-phenyl-1,4,5,6-tetrahydropyridazine-1-carboximidamido)-3-methylbutanamide], the IC50 at Brain/CB1 was greater than 1000 nM.

At Brain/CB1, `COc1ccc(S(=O)(=O)/N=C(/NC(C(N)=O)C(C)C)N2CCC(c3ccccc3)C(c3ccc(Cl)cc3)=N2)cc1` (single isomer, unassigned) [Compound 27b, (Z)-2-(3-(4-chlorophenyl)-N′-((4-methoxyphenyl)sulfonyl)-4-phenyl-1,4,5,6-tetrahydropyridazine-1-carboximidamido)-3-methylbutanamide] had a half-maximal inhibitory concentration (IC50) of 51 nM.

Consider `CC(C)C(N/C(=N/S(=O)(=O)c1ccccc1)N1CCC(c2ccccc2)C(c2ccc(Cl)cc2)=N1)C(N)=O` (single isomer, unassigned) [Compound 28a, (Z)-2-(3-(4-chlorophenyl)-4-phenyl-N′-(phenylsulfonyl)-1,4,5,6-tetrahydropyridazine-1-carboximidamido)-3-methylbutanamide], for which the IC50 on Brain/CB1 was greater than 1000 nM.

`CC(C)C(N/C(=N/S(=O)(=O)c1ccccc1)N1CCC(c2ccccc2)C(c2ccc(Cl)cc2)=N1)C(N)=O` (single isomer, unassigned) [Compound 28b, (Z)-2-(3-(4-chlorophenyl)-4-phenyl-N′-(phenylsulfonyl)-1,4,5,6-tetrahydropyridazine-1-carboximidamido)-3-methylbutanamide]: at Brain/CB1, the half-inhibitory concentration (IC50) is 336 nM.

Turning to `CC(C)C(N/C(=N/S(=O)(=O)c1ccc(Cl)cc1)N1CCC(c2ccccc2)C(c2ccc(Cl)cc2)=N1)C(N)=O` (single isomer, unassigned) [Compound 30a, (Z)-2-(3-(4-chlorophenyl)-N′-((4-chlorophenyl)sulfonyl)-4-phenyl-1,4,5,6-tetrahydropyridazine-1-carboximidamido)-3-methylbutanamide], the Ki at CB1 was 907 nM. This compound showed an IC50 on Brain/CB1 greater than 1000 nM.

For `CC(C)C(N/C(=N/S(=O)(=O)c1ccc(Cl)cc1)N1CCC(c2ccccc2)C(c2ccc(Cl)cc2)=N1)C(N)=O` (single isomer, unassigned) [Compound 30b, (Z)-2-(3-(4-chlorophenyl)-N′-((4-chlorophenyl)sulfonyl)-4-phenyl-1,4,5,6-tetrahydropyridazine-1-carboximidamido)-3-methylbutanamide], the Ki on CB1 was 18.2 nM. This compound showed an IC50 at Brain/CB1 of 39 nM.
